Measured values: PubChem BioAssay AID2060606 (Molecular Pharmacology Branch, DTP, NCI, 2025)
One block for each compound: values may come before it.

Tested on: 922993-354-T-J3-PDC complex spheroids, viability, % test/control
Test: Anticancer human tumor 922993-354-T-J3-PDC patient-derived endometrial carcinoma cell line growth inhibition [CLK]
Settings: for IC50: curve of first compound; for viability, T/C: stronger effect = lower value
How it was run: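 Multi-cell-type spheroids combined patient-derived tumor cells with HUVEC endothelial cells and human mesenchymal stem cells. Paired agents were dosed in half-log steps down from about clinical Cmax, or from 10 microM where Cmax was unknown.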
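Further: spheroids exposed to the agents for 7 days before readout.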

IC50 (second compound 0.0316 µM): > 300 nM
IC50 (second compound 0.1 µM): > 300 nM
IC50 (second compound 0.316 µM): > 300 nM
IC50 (second compound 1 µM): < 0.949 nM
IC50 (second compound 3.16 µM): < 0.949 nM
IC50 (second compound 10 µM): < 0.949 nM
SMILES: C=CC(=O)Nc1cc(Nc2nccc(-c3cn(C)c4ccccc34)n2)c(OC)cc1N(C)CCN(C)C + CNC(=O)c1ccc(Nc2nc(OC3CCCC3)c3c(-c4ccc5nc(C)oc5c4)c[nH]c3n2)c(OC)c1
viability, T/C (second compound 0.0316 µM, first compound 0.000949 µM): 106%
viability, T/C (second compound 0.0316 µM, first compound 0.003 µM): 105%
viability, T/C (second compound 0.0316 µM, first compound 0.00949 µM): 106%
viability, T/C (second compound 0.0316 µM, first compound 0.03 µM): 102%
viability, T/C (second compound 0.0316 µM, first compound 0.0949 µM): 96.9%
viability, T/C (second compound 0.0316 µM, first compound 0.3 µM): 89.2%
viability, T/C (second compound 0.1 µM, first compound 0.000949 µM): 97.5%
viability, T/C (second compound 0.1 µM, first compound 0.003 µM): 107%
viability, T/C (second compound 0.1 µM, first compound 0.00949 µM): 96.4%
viability, T/C (second compound 0.1 µM, first compound 0.03 µM): 98.3%
viability, T/C (second compound 0.1 µM, first compound 0.0949 µM): 91.2%
viability, T/C (second compound 0.1 µM, first compound 0.3 µM): 86%
viability, T/C (second compound 0.316 µM, first compound 0.000949 µM): 70.7%
viability, T/C (second compound 0.316 µM, first compound 0.003 µM): 58.9%
viability, T/C (second compound 0.316 µM, first compound 0.00949 µM): 55.5%
viability, T/C (second compound 0.316 µM, first compound 0.03 µM): 42%
viability, T/C (second compound 0.316 µM, first compound 0.0949 µM): 57.1%
viability, T/C (second compound 0.316 µM, first compound 0.3 µM): 51.2%
viability, T/C (second compound 1 µM, first compound 0.000949 µM): 37.5%
viability, T/C (second compound 1 µM, first compound 0.003 µM): 34.9%
viability, T/C (second compound 1 µM, first compound 0.00949 µM): 41.9%
viability, T/C (second compound 1 µM, first compound 0.03 µM): 42%
viability, T/C (second compound 1 µM, first compound 0.0949 µM): 34.6%
viability, T/C (second compound 1 µM, first compound 0.3 µM): 35.5%
viability, T/C (second compound 3.16 µM, first compound 0.000949 µM): 35.8%
viability, T/C (second compound 3.16 µM, first compound 0.003 µM): 33%
viability, T/C (second compound 3.16 µM, first compound 0.00949 µM): 34%
viability, T/C (second compound 3.16 µM, first compound 0.03 µM): 34.6%
viability, T/C (second compound 3.16 µM, first compound 0.0949 µM): 34%
viability, T/C (second compound 3.16 µM, first compound 0.3 µM): 29.9%
viability, T/C (second compound 10 µM, first compound 0.000949 µM): 26.8%
viability, T/C (second compound 10 µM, first compound 0.003 µM): 29.7%
viability, T/C (second compound 10 µM, first compound 0.00949 µM): 30%
viability, T/C (second compound 10 µM, first compound 0.03 µM): 30.2%
viability, T/C (second compound 10 µM, first compound 0.0949 µM): 29%
viability, T/C (second compound 10 µM, first compound 0.3 µM): 32.5%

IC50 (second compound 0.0316 µM): 3780 nM
IC50 (second compound 0.1 µM): 4180 nM
IC50 (second compound 0.316 µM): 1960 nM
IC50 (second compound 1 µM): < 31.6 nM
IC50 (second compound 3.16 µM): < 31.6 nM
IC50 (second compound 10 µM): < 31.6 nM
SMILES: CC(Nc1ccc2c(c1)OCCn1cc(N3C(=O)OCC3C(F)F)nc1-2)C(N)=O (centres undefined) + CNC(=O)c1ccc(Nc2nc(OC3CCCC3)c3c(-c4ccc5nc(C)oc5c4)c[nH]c3n2)c(OC)c1
viability, T/C (second compound 0.0316 µM, first compound 0.0316 µM): 116%
viability, T/C (second compound 0.0316 µM, first compound 0.1 µM): 106%
viability, T/C (second compound 0.0316 µM, first compound 0.316 µM): 84.8%
viability, T/C (second compound 0.0316 µM, first compound 1 µM): 70.6%
viability, T/C (second compound 0.0316 µM, first compound 3.16 µM): 57%
viability, T/C (second compound 0.0316 µM, first compound 10 µM): 31.7%
viability, T/C (second compound 0.1 µM, first compound 0.0316 µM): 108%
viability, T/C (second compound 0.1 µM, first compound 0.1 µM): 102%
viability, T/C (second compound 0.1 µM, first compound 0.316 µM): 99.5%
viability, T/C (second compound 0.1 µM, first compound 1 µM): 74.5%
viability, T/C (second compound 0.1 µM, first compound 3.16 µM): 55.9%
viability, T/C (second compound 0.1 µM, first compound 10 µM): 37%
viability, T/C (second compound 0.316 µM, first compound 0.0316 µM): 71.7%
viability, T/C (second compound 0.316 µM, first compound 0.1 µM): 69.3%
viability, T/C (second compound 0.316 µM, first compound 0.316 µM): 77.6%
viability, T/C (second compound 0.316 µM, first compound 1 µM): 63.8%
viability, T/C (second compound 0.316 µM, first compound 3.16 µM): 40%
viability, T/C (second compound 0.316 µM, first compound 10 µM): 31.8%
viability, T/C (second compound 1 µM, first compound 0.0316 µM): 39.8%
viability, T/C (second compound 1 µM, first compound 0.1 µM): 36.5%
viability, T/C (second compound 1 µM, first compound 0.316 µM): 26.4%
viability, T/C (second compound 1 µM, first compound 1 µM): 23.1%
viability, T/C (second compound 1 µM, first compound 3.16 µM): 15.2%
viability, T/C (second compound 1 µM, first compound 10 µM): 10.8%
viability, T/C (second compound 3.16 µM, first compound 0.0316 µM): 35.1%
viability, T/C (second compound 3.16 µM, first compound 0.1 µM): 27.4%
viability, T/C (second compound 3.16 µM, first compound 0.316 µM): 24%
viability, T/C (second compound 3.16 µM, first compound 1 µM): 16.3%
viability, T/C (second compound 3.16 µM, first compound 3.16 µM): 12.3%
viability, T/C (second compound 3.16 µM, first compound 10 µM): 10.8%
viability, T/C (second compound 10 µM, first compound 0.0316 µM): 28.9%
viability, T/C (second compound 10 µM, first compound 0.1 µM): 27.2%
viability, T/C (second compound 10 µM, first compound 0.316 µM): 21.5%
viability, T/C (second compound 10 µM, first compound 1 µM): 17.6%
viability, T/C (second compound 10 µM, first compound 3.16 µM): 13.4%
viability, T/C (second compound 10 µM, first compound 10 µM): 9.54%
